Source: patent US6384077B1, “Highly purified EPA for treatment of schizophrenia and related disorders” (Laxdale Limited, priority 1999, dated 2002)

Columns and labels:
Format in all cases: in vivo, human
[1] = system: depression; assay: case report: depressed person, Hamilton Depression Rating Scale; details: 1 g/day 96% ethyl-EPA, after about 3-4 weeks
Source text: Our attention was unexpectedly drawn to the importance of highly purified EPA by our experience with a patient, a depressed women aged 35 years. […] […] […] They continued the EPA-rich oil for a further two months without any further change. […] As a result of this, and of thinking about the evidence relating to the binding of EPA to FACL-4 and presumably to other proteins, we came to the conclusion that it was important for clinical efficacy to administer EPA in a highly purified form for maximum clinical effectiveness.

[2] = system: bipolar disorder; assay: case reports: five patients with bipolar disorder; details: 2 g/day after switch from fish oil
Source text: This provided 1.8-3.6 g of EPA and 1.2-2.4 g of DHA per day. […] They were, however, far from completely normal. When the pure ethyl-EPA became available, they were switched from the fish oil to the pure EPA at a dose of 2 g/day in the form of four 0.5 g soft gelatin capsules. […] In particular they all noted an improvement in something which is difficult to measure by conventional psychiatric rating scales. This is a sense of inner tension or dysphoria, a state which is associated with the illness, but which may be exaggerated or changed by antipsychotic drugs to a state of confused tension, sometimes described as a sense of the brain being replaced by cotton wool, and a difficulty of thinking clearly in a straight line. […] They had not noticed this effect which being treated with the higher dose of EPA in the form of the EPA/DHA mix in fish oil.

[3] = system: attention deficit hyperactivity disorder (ADHD); assay: case report: child with ADHD; details: two capsules per day, after two weeks
Source text: Attention deficit hyperactivity disorder (ADHD): ADHD and closely related conditions like attention deficit disorder and conduct disorders are commonly found in children. Occasionally they may be successfully treated by behaviour modification and other psychological techniques or by careful attention to diet. However, in most cases, paradoxical treatment with one of the stimulant drugs related in their action to amphetamine is required. Methylphenidate and dextroamphetamine are the commonest used. A child with serious ADHD since infancy was driving their parents to distraction. […] The parents were concerned about the long term consequences of stimulant drugs. The child was therefore tried on two capsules of pure ethyl-EPA per day. […] The child became less tense and irritable, less hyperactive, more open to reasoned discussion and enormously less disruptive both at home and school. Even when their methylphenidate was stopped, their behaviour remained improved.

[4] = system: panic and anxiety disorders; assay: case histories: panic and anxiety disorders
Experimental: We have now treated several patients who have panic and anxiety disorders with purified ethyl-EPA with excellent effect. Three case histories follow. A person was disabled as a result of frequent and uncontrollable panic attacks and palpitations. […] They were then given a dose of 2 g per day of ethyl EPA as four 500 mg capsules. […] A person had suffered from mild anxiety and panic attacks for most of their life but these had become much worse over the previous few years in association with various problems with their children. Anxiolytics and antidepressants had only modest effects and their palpitations were uncontrolled even by relatively high doses of beta-blockers. Again they were treated with ethyl-EPA over a period of four months. […] The third patient was a housewife who had been through two divorces and was now in a long-term relationship. They had several panic attacks every week, sometimes in the middle of the night, and always accompanied by strong palpitations which were very worrying for them. These panic attacks were accompanied by depression. They were very reluctant to go out for fear of having an attack and this seriously disrupted their life. Again, antidepressants, beta-blockers and anxiolytics had had only limited beneficial effects. […] Sometimes, they felt that an attack of palpitations might be coming on but it rarely materialised. As a result, they felt increasing confidence and was able to resume a much more normal life.

SMILES: CC/C=C\C/C=C\C/C=C\C/C=C\C/C=C\CCCC(=O)OCC [ethyl-EPA]
- Hamilton scores [1]: below 6
- clinical condition in bipolar disorder [2]: clinical condition improved considerably
- sense of dysphoria, tension and cotton-wool thinking [2]: greatly reduced or disappeared altogether
- behaviour in ADHD [3]: substantial improvement in behaviour
- panic attacks and palpitations ([4]; housewife, four months): dramatic reduction in their panic attacks and palpitations
- panic attacks and palpitations ([4]; person, 2 g per day, three months): almost absent
- anxiety and panic attacks ([4]; person, four months): much less severe
